Experimental data as given in US5602174A, “Treatment” (Beecham Wuefling GmbH & Co., priority 1986, dated 1997).

Tests used:
[1] = Haemodynamic profile in anaesthetized rats; type: in vivo, rat; set-up: Dhr^20 (i.v. dose which reduces heart rate by ca. 20%) / Dhr^20 (dose which reduces heart rate by ca. 20%): unit not given here
From the text: The effect of compounds of the invention on heart rate, systolic left ventricular pressure, left ventricular dp/dt max and mean arterial blood pressure was investigated so as to obtain information on the anti-anginal potential of these compounds, by reducing the oxygen demand of the ischaemic heart.
*Dhr^20 = i.v. dose which reduces heart rate by ca. 20%
**LVP = systolic left ventricular pressure
***BP = mean arterial blood pressure
^a = i.d. administration

[2] = system: coronary spasm; experiment: Vasopressin test in anaesthetized rats (coronary spasm, ST-segment elevation in the ECG); type: in vivo, rat; settings: 0.6 g/kg i.d., vasopressin (Lysopressin 1 I.U./kg) i.v.
Description: Vasopressin (Lysopressin: 1 I.U./kg) was administered intravenously in order to provoke coronary spasm (ST-segment elevation in the ECG).
The ability of test compounds to reduce coronary spasm is taken as a measure of their anti-anginal potential in spasm-induced angina pectoris. (Ref. Drug. Res. 33(11), 8,1117-1121 (1983)).

[3] = i.v. at Dhr^20, anaesthetized rat

SMILES: CCCCOC(=O)N(CCCN(C)CCc1ccc(OC)c(OC)c1)c1ccc(OC)c(OC)c1 [Example E24, (N-[3,4-Dimethoxyphenyl]-N-3-[N'-2-(3,4-dimethoxyphenyl)-ethyl-N'methylamino]-propyl)-n-butyl-urethane]
- % effect of Dhr^20 on BP (mean arterial blood pressure) [1, 3]: -15%
- % effect of Dhr^20 on LVP (systolic left ventricular pressure) [1, 3]: -13%
- % effect of Dhr^20 on dp/dtmax (left ventricular dp/dt max) [1, 3]: -8%
- Dhr^20 (i.v. dose which reduces heart rate by ca. 20%) ([1]; i.v., anaesthetized rat): 3.2
- i.v. duration of action on heart rate (rat) ([1]; i.v., anaesthetized rat): 10 min

SMILES: COc1ccc(CCN(C)CCCN(C(=O)c2ccc([N+](=O)[O-])cc2)c2ccc(OC)c(OC)c2)cc1OC [Example E50, (N-[3,4-Dimethoxyphenyl]-N-3-[N'-2-(3,4-dimethoxyphenyl)-ethyl-N'-methyl-amino]-propyl)-4-nitrobenzamide]
- % effect of Dhr^20 on BP (mean arterial blood pressure) ([1]; rat, in vivo): -6%
- Dhr^20 (dose which reduces heart rate by ca. 20%) ([1]; rat, in vivo): 16
- duration of action on heart rate (rat) ([1]; rat, in vivo): > 90 min
- % effect of Dhr^20 on BP (mean arterial blood pressure) ([1]; rat, in vivo, iv): -1%
- % effect of Dhr^20 on LVP (systolic left ventricular pressure) ([1]; rat, in vivo, iv): -1%
- Dhr^20 (i.v. dose which reduces heart rate by ca. 20%) ([1]; rat, in vivo, iv): 1.6
- i.v. duration of action on heart rate (rat) ([1]; rat, in vivo, iv): 10 min

SMILES: CCCCCN(CCCN(C)CCc1ccc(OC)c(OC)c1)c1ccc(OC)c(OC)c1 [Example E34, (N-[3,4-Dimethoxyphenyl]-N-3-[N'-2-(3,4-dimethoxyphenyl)-ethyl-N'-methylamino]-propyl)-n-pentylamine]
- % effect of Dhr^20 on BP (mean arterial blood pressure) [1, 3]: -9%
- % effect of Dhr^20 on LVP (systolic left ventricular pressure) [1, 3]: -9%
- % effect of Dhr^20 on dp/dtmax (left ventricular dp/dt max) [1, 3]: -10%
- Dhr^20 (i.v. dose which reduces heart rate by ca. 20%) ([1]; i.v., anaesthetized rat): 1.6
- i.v. duration of action on heart rate (rat) ([1]; i.v., anaesthetized rat): 5 to 10 min

SMILES: COc1ccc(CCN(C)CCN(C(=O)NC(C)c2ccccc2)c2ccc(OC)c(OC)c2)cc1OC (centres unmarked) [Example E32]
- % effect of Dhr^20 on BP (mean arterial blood pressure) [1, 3]: -13%
- % effect of Dhr^20 on LVP (systolic left ventricular pressure) [1, 3]: -7%
- % effect of Dhr^20 on dp/dtmax (left ventricular dp/dt max) [1, 3]: -3%
- Dhr^20 (i.v. dose which reduces heart rate by ca. 20%) ([1]; i.v., anaesthetized rat): 3.2
- i.v. duration of action on heart rate (rat) ([1]; i.v., anaesthetized rat): 10 min

SMILES: CCCNC(=O)N(CCCN(C)CCc1ccc(OC)c(OC)c1)c1ccc(OC)c(OC)c1 [Example E27, (N-[3,4-Dimethoxyphenyl]-N-3-[N'-2-(3,4-dimethoxyphenyl)-ethyl-N'-methylamino]-propyl)-N"-n-propyl-urea]
- % effect of Dhr^20 on BP (mean arterial blood pressure) [1, 3]: -4%
- % effect of Dhr^20 on LVP (systolic left ventricular pressure) [1, 3]: -2%
- % effect of Dhr^20 on dp/dtmax (left ventricular dp/dt max) [1, 3]: -1%
- Dhr^20 (i.v. dose which reduces heart rate by ca. 20%) ([1]; i.v., anaesthetized rat): 6.4
- i.v. duration of action on heart rate (rat) ([1]; i.v., anaesthetized rat): 5 to 10 min

SMILES: COc1ccc(CCN(C)CCCN(Cc2ccccc2[N+](=O)[O-])c2ccc(OC)c(OC)c2)cc1OC [Example E1]
- active against coronary spasm [2]: active
- % effect of Dhr^20 on BP (mean arterial blood pressure) [1, 3]: 0%
- % effect of Dhr^20 on LVP (systolic left ventricular pressure) [1, 3]: -2%
- % effect of Dhr^20 on dp/dtmax (left ventricular dp/dt max) [1, 3]: -3%
- Dhr^20 (i.v. dose which reduces heart rate by ca. 20%) ([1]; i.v., anaesthetized rat): 1.6
- i.v. duration of action on heart rate (rat) ([1]; i.v., anaesthetized rat): 10 min

SMILES: COc1ccc(CCN(C)CCCN(Cc2ccc([N+](=O)[O-])cc2)c2ccc(OC)c(OC)c2)cc1OC [Example E6, (N-[3,4-Dimethoxyphenyl]-N-3-[N'-2-(3,4-dimethoxyphenyl)-ethyl-N'-methylamino]-propyl)-(4-nitro)-benzylamine]
- % effect of Dhr^20 on BP (mean arterial blood pressure) [1, 3]: +1%
- % effect of Dhr^20 on LVP (systolic left ventricular pressure) [1, 3]: +5%
- % effect of Dhr^20 on dp/dtmax (left ventricular dp/dt max) [1, 3]: -5%
- Dhr^20 (i.v. dose which reduces heart rate by ca. 20%) ([1]; i.v., anaesthetized rat): 0.4
- i.v. duration of action on heart rate (rat) ([1]; i.v., anaesthetized rat): 60 min

SMILES: COc1ccc(CCN(C)CCCN(C(=O)Oc2ccccc2)c2ccc(OC)c(OC)c2)cc1OC [Example E25, (N-[3,4-Dimethoxyphenyl]-N-3-[N'-2-(3,4-dimethoxyphenyl)-ethyl-N'-methylamino]-propyl)-phenyl-urethane]
- % effect of Dhr^20 on BP (mean arterial blood pressure) [1, 3]: -14%
- % effect of Dhr^20 on LVP (systolic left ventricular pressure) [1, 3]: -10%
- % effect of Dhr^20 on dp/dtmax (left ventricular dp/dt max) [1, 3]: -2%
- Dhr^20 (i.v. dose which reduces heart rate by ca. 20%) ([1]; i.v., anaesthetized rat): 0.8
- i.v. duration of action on heart rate (rat) ([1]; i.v., anaesthetized rat): 10 min

SMILES: COc1ccc(CCN(C)CCCN(c2ccc(OC)c(OC)c2)c2ncc([N+](=O)[O-])cc2[N+](=O)[O-])cc1OC [Example E44]
- % effect of Dhr^20 on BP (mean arterial blood pressure) [1, 3]: -10%
- % effect of Dhr^20 on LVP (systolic left ventricular pressure) [1, 3]: -6%
- % effect of Dhr^20 on dp/dtmax (left ventricular dp/dt max) [1, 3]: -8%
- Dhr^20 (i.v. dose which reduces heart rate by ca. 20%) ([1]; i.v., anaesthetized rat): 3.2
- i.v. duration of action on heart rate (rat) ([1]; i.v., anaesthetized rat): 10 min

SMILES: COc1ccc(CCN(C)CCCN(Cc2ccccc2)c2ccc(OC)c(OC)c2)cc1OC [Example E4, (N-[3,4-Dimethoxyphenyl]-N-3-[N'-2-(3,4-dimethoxyphenyl)-ethyl-N'-methylamino]-propyl)-benzylamine]
- % effect of Dhr^20 on BP (mean arterial blood pressure) [1, 3]: -6%
- % effect of Dhr^20 on LVP (systolic left ventricular pressure) [1, 3]: -3%
- % effect of Dhr^20 on dp/dtmax (left ventricular dp/dt max) [1, 3]: -12%
- Dhr^20 (i.v. dose which reduces heart rate by ca. 20%) ([1]; i.v., anaesthetized rat): 3.2
- i.v. duration of action on heart rate (rat) ([1]; i.v., anaesthetized rat): 10 min

SMILES: CCCCC(=O)N(CCCN(C)CCc1ccc(OC)c(OC)c1)c1ccc(OC)c(OC)c1 [Example E12, (N-[3,4-Dimethoxyphenyl]-N-3-[N'-2-(3,4-dimethoxyphenyl)-ethyl-N'-methylamino]-propyl)-pentanoic acid amide]
- % effect of Dhr^20 on BP (mean arterial blood pressure) [1, 3]: -11%
- % effect of Dhr^20 on LVP (systolic left ventricular pressure) [1, 3]: -6%
- % effect of Dhr^20 on dp/dtmax (left ventricular dp/dt max) [1, 3]: -6%
- Dhr^20 (i.v. dose which reduces heart rate by ca. 20%) ([1]; i.v., anaesthetized rat): 1.6
- i.v. duration of action on heart rate (rat) ([1]; i.v., anaesthetized rat): 10 min

SMILES: COc1ccc(CCN(C)CCCN(C(=O)NCc2ccccc2)c2ccc(OC)c(OC)c2)cc1OC [Example E30, (N-[3,4-Dimethoxyphenyl]-N-3-[N'-2-(3,4-dimethoxyphenyl)-ethyl-N'-methylamino]-propyl)-N"-benzylurea]
- % effect of Dhr^20 on BP (mean arterial blood pressure) [1, 3]: -15%
- % effect of Dhr^20 on LVP (systolic left ventricular pressure) [1, 3]: -10%
- % effect of Dhr^20 on dp/dtmax (left ventricular dp/dt max) [1, 3]: -20%
- Dhr^20 (i.v. dose which reduces heart rate by ca. 20%) ([1]; i.v., anaesthetized rat): 1.6
- i.v. duration of action on heart rate (rat) ([1]; i.v., anaesthetized rat): 10 min

SMILES: COc1ccc(CCN(C)CCCN(C(=O)CCc2ccccc2)c2ccc(OC)c(OC)c2)cc1OC [Example E15, (N-[5,4-Dimethoxyphenyl]-N-3-[N'-2-(3,4-dimethoxyphenyl)-ethyl-N'-methylamino]-propyl)-(3-phenyl)propanoic acid amide]
- % effect of Dhr^20 on BP (mean arterial blood pressure) [1, 3]: -8%
- % effect of Dhr^20 on LVP (systolic left ventricular pressure) [1, 3]: -7%
- % effect of Dhr^20 on dp/dtmax (left ventricular dp/dt max) [1, 3]: -7%
- Dhr^20 (i.v. dose which reduces heart rate by ca. 20%) ([1]; i.v., anaesthetized rat): 1.6
- i.v. duration of action on heart rate (rat) ([1]; i.v., anaesthetized rat): 10 min
